The text below walks through data of ChEMBL document CHEMBL3991601, “The target landscape of clinical kinase drugs” (Science, 2017).

For assay [1], the target named is Calcium/calmodulin-dependent protein kinase type II subunit gamma (Homo sapiens, UniProt Q13555).
The target of assay [2] is T1, Pyridoxal kinase (Homo sapiens, UniProt O00764).
T1 sequence (O00764 whole entry): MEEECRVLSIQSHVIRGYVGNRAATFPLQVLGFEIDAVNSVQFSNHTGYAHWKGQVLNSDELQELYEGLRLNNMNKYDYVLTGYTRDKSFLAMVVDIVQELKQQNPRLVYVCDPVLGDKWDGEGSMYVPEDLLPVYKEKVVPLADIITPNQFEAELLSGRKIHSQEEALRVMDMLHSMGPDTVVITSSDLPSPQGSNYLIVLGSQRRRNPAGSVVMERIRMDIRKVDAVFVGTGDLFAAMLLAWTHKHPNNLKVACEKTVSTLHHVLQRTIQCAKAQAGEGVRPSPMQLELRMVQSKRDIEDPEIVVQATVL

Assay [3] has as its target T2, Mitogen-activated protein kinase kinase kinase 5 (Homo sapiens, UniProt Q99683).
T2 sequence (Q99683 whole entry): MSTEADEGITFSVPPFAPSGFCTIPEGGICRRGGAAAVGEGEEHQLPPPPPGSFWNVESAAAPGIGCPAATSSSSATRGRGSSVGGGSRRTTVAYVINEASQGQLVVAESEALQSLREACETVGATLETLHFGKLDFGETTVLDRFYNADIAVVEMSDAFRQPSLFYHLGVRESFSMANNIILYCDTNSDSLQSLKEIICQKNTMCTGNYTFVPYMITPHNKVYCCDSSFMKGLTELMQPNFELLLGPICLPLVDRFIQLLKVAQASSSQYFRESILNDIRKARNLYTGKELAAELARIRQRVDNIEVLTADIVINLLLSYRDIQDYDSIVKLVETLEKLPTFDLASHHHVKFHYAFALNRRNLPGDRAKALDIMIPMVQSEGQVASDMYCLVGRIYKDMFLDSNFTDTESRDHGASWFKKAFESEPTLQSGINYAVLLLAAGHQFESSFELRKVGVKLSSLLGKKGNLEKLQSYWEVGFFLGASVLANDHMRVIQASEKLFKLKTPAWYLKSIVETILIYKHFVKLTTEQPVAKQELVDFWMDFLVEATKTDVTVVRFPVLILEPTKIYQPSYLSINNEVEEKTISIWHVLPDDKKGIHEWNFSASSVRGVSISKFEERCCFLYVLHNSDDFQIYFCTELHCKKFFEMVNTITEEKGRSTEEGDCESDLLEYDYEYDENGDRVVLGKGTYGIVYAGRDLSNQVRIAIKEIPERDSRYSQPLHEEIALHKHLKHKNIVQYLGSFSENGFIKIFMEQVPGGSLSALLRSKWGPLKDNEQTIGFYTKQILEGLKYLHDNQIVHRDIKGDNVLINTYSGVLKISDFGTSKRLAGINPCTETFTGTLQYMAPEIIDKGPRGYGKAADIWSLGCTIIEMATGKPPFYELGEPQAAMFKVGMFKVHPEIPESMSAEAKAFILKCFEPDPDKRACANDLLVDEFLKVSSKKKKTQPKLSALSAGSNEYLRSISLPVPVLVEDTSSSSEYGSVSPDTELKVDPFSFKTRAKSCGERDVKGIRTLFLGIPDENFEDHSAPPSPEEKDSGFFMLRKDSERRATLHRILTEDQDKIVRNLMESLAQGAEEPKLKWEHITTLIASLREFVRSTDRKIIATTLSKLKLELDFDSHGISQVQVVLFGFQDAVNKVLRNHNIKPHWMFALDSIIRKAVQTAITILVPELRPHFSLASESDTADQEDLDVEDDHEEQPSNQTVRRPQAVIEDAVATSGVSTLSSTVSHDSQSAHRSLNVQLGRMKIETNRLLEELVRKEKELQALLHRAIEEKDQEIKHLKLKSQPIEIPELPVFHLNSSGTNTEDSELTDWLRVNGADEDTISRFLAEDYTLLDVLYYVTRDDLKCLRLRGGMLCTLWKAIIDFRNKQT

The target in assay [4] is T3, Serine/threonine-protein kinase Nek1 (Homo sapiens, UniProt Q96PY6).
T3 sequence (Q96PY6 whole entry): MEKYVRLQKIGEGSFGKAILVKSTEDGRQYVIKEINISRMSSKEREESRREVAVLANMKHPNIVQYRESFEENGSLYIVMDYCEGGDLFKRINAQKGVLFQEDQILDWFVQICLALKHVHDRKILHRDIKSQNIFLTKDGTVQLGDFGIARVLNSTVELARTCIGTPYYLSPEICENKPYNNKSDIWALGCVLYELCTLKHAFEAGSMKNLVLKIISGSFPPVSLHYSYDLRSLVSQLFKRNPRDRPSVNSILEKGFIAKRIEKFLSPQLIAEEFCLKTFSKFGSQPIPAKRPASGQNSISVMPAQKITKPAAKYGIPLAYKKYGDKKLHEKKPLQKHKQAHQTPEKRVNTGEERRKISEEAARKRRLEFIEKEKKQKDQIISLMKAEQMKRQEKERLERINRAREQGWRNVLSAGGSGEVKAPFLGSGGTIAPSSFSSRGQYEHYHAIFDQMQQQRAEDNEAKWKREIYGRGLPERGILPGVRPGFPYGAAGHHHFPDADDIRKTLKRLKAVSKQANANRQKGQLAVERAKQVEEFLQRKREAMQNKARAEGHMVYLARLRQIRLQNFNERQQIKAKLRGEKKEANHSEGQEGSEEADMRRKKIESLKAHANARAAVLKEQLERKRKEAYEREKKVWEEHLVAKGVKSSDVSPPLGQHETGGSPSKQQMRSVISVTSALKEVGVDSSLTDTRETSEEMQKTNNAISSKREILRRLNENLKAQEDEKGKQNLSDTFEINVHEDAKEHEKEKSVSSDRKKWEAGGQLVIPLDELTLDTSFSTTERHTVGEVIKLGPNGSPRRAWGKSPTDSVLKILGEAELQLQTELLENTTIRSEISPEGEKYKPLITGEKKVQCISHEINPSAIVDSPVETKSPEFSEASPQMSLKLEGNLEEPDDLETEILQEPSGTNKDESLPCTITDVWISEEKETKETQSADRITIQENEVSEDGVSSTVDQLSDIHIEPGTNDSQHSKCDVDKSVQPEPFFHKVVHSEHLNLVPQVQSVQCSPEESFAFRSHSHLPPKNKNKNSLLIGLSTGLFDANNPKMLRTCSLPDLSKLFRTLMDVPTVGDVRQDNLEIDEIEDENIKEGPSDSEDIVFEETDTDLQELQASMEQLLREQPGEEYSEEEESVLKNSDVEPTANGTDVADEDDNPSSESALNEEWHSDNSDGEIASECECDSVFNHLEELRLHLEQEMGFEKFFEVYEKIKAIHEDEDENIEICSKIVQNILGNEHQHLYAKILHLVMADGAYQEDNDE

What is called Kd is the free concentration of one partner at which half of the binding sites on the other are occupied at equilibrium, for simple one-to-one binding.

Active and inactive are the calls of the source.
Note: in the data inactive means no Kd found up to 30 µM.

Sequence of Calcium/calmodulin-dependent protein kinase type II subunit gamma (Q13555 whole entry): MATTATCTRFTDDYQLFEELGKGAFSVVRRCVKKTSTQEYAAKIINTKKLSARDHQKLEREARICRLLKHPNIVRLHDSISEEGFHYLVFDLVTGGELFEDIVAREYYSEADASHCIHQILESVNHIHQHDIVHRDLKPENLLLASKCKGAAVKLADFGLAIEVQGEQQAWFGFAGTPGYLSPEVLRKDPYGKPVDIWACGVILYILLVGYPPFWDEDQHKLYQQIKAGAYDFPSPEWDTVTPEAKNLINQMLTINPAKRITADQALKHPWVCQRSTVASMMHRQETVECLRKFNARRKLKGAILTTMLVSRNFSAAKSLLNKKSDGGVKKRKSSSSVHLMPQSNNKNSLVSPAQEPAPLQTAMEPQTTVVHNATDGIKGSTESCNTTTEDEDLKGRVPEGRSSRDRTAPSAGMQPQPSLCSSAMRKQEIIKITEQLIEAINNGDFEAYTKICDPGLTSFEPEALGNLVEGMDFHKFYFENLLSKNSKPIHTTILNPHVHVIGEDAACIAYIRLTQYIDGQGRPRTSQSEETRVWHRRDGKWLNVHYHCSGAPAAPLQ

As to `CCc1nc(C(N)=O)c(Nc2ccc(N3CCC(N4CCN(C)CC4)CC3)c(OC)c2)nc1NC1CCOCC1` [GILTERITINIB], the Kd in assay [1] is 0.169 µM (active); in assay [2] it was > 30 µM (inactive); in assay [3], > 30 µM (inactive); in assay [4], > 30 µM (inactive).

For `Cc1cc(Nc2nc(N[C@@H](C)c3ncc(F)cn3)ncc2Cl)n[nH]1` [AZD-1480], the Kd in assay [1], in assay [2], in assay [3] and in assay [4] was > 30 µM (inactive) in each case.

Regarding `Cc1ccc(C(=O)Nc2ccc(Oc3cc4cnn(C)c4cc3-c3cn[nH]c3)c(F)c2)c(=O)n1-c1ccc(F)cc1` [MERESTINIB], the Kd in assay [1], in assay [2], in assay [3] and in assay [4] was > 30 µM (inactive) each time.

Consider `C#Cc1cccc(Nc2ncnc3cc4c(cc23)OCCOCCOCCO4)c1` [ICOTINIB], for which the Kd in assay [1], in assay [2], in assay [3] and in assay [4] was > 30 µM (inactive) in each case.

On to `C=CCn1c(=O)c2cnc(Nc3ccc(N4CCN(C)CC4)cc3)nc2n1-c1cccc(C(C)(C)O)n1` [ADAVOSERTIB], for which the Kd in assay [1], in assay [2], in assay [3] and in assay [4] was > 30 µM (inactive) in each case.

For `COc1cc(F)c(F)c(Nc2ccc(I)cc2F)c1NS(=O)(=O)C1(C[C@H](O)CO)CC1` [REFAMETINIB], the Kd in assay [1], in assay [2], in assay [3] and in assay [4] was > 30 µM (inactive) throughout.

Consider `CCOc1ccn(-c2ccc(F)cc2)c(=O)c1C(=O)Nc1ccc(Oc2ccnc(N)c2Cl)c(F)c1` [BMS-777607], for which the Kd in assay [2], in assay [3] and in assay [4] was > 30 µM (inactive) throughout.

Take `O[C@H]1CC[C@H](Nc2ncc3nc(Nc4c(F)cc(F)cc4F)n([C@H]4CCOC4)c3n2)CC1` [TANZISERTIB]: the Kd in assay [1], in assay [2], in assay [3] and in assay [4] was > 30 µM (inactive) in each case.

As to `FC(F)(F)c1ccc(CNc2ccc(Cc3c[nH]c4ncc(Cl)cc34)cn2)cn1` [PEXIDARTINIB], the Kd in assay [1], in assay [2], in assay [3] and in assay [4] was > 30 µM (inactive) each time.

In the case of `CNC(=O)c1cc(COc2nnc(Nc3ccc(Cl)cc3)c3ccoc23)ccn1` [TELATINIB], the Kd in assay [1], in assay [2], in assay [3] and in assay [4] was > 30 µM (inactive) in each case.

With `COc1cc2ncnc3c2cc1OCCCCCN(C)Cc1ccc(Br)cc1N3` [JNJ-26483327], the Kd in assay [1], in assay [2], in assay [3] and in assay [4] was > 30 µM (inactive) each time.

Regarding `CNC(=O)c1cccc(-c2ccc3c(N4CCOC[C@@H]4C)nc(N4CCOC[C@@H]4C)nc3n2)c1` [VISTUSERTIB], the Kd in assay [1], in assay [2], in assay [3] and in assay [4] was > 30 µM (inactive) in each case.

`CC1(C)CNc2cc(NC(=O)c3cccnc3NCc3ccncc3)ccc21` [MOTESANIB]: in assay [2], the Kd was > 30 µM (inactive).

As for `CC1(COc2ccc3c(c2)ncn3-c2ccc3cccc(N4CCC(N)CC4)c3n2)COC1` [CRENOLANIB], the Kd in assay [1] was 0.766 µM (active); in assay [2] it was > 30 µM (inactive); in assay [3], > 30 µM (inactive); in assay [4], > 30 µM (inactive).

On to `COc1cc2c(N3CCN(C(=O)Nc4ccc(OC(C)C)cc4)CC3)ncnc2cc1OCCCN1CCCCC1` [TANDUTINIB], for which the Kd in assay [2] is > 30 µM (inactive).

In the case of `O=S(=O)(c1cccc2cnccc12)N1CCCNCC1` [FASUDIL], the Kd in assay [1], in assay [2], in assay [3] and in assay [4] was > 30 µM (inactive) each time.

With `N#CCNC(=O)c1ccc(-c2ccnc(Nc3ccc(N4CCOCC4)cc3)n2)cc1` [MOMELOTINIB], the Kd in assay [2], in assay [3] and in assay [4] was > 30 µM (inactive) throughout.

Take `CN(C)C/C=C/C(=O)Nc1cc2c(Nc3ccc(F)c(Cl)c3)ncnc2cc1O[C@H]1CCOC1` [AFATINIB]: the Kd in assay [2] is > 30 µM (inactive).

In the case of `Cn1cnc2c(F)c(Nc3ccc(Br)cc3Cl)c(C(=O)NOCCO)cc21` [SELUMETINIB], in assay [2], the Kd was > 30 µM (inactive).

For the compound `COc1cc2c(Oc3ccc4[nH]c(C)cc4c3F)ncnc2cc1OCCCN1CCCC1` [CEDIRANIB], the Kd in assay [2] is > 30 µM (inactive).

For the compound `C[C@]1(O)C[C@@H](c2nc(-c3ccc4ccc(-c5ccccc5)nc4c3)c3c(N)nccn32)C1` [LINSITINIB], the Kd in assay [2], in assay [3] and in assay [4] was > 30 µM (inactive) throughout.

For `CN(c1ncccc1CNc1nc(Nc2ccc3c(c2)CC(=O)N3)ncc1C(F)(F)F)S(C)(=O)=O` [PF-00562271], the Kd in assay [2], in assay [3] and in assay [4] was > 30 µM (inactive) each time.

With `C[C@@]1(C(=O)Nc2ccc(F)nc2)CCCN1c1nc(Nc2cc(C3CC3)n[nH]2)c2cccn2n1` [BMS-754807], the Kd in assay [2] is > 30 µM (inactive).
